Reference: PubChem BioAssay (NCI)
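Tested at 5 concentrations; 48 h exposure; 96-well plates; endpoints linearly interpolated, else capped at highest concentration. TGI is the concentration that stops growth completely.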 Where a SMILES comes first, the peptide text is derived from it. The star is where a group is joined. Boc = CC(C)(C)OC(=O)*

Legend:
Assay in all cases: growth of human tumour cells (NCI), 48 h
[1] = tested on: SNB-19 CNS
[2] = tested on: SF-268 CNS
[3] = tested on: HT29 colon
[4] = tested on: SK-MEL-5 melanoma
[5] = tested on: TK-10 renal
[6] = tested on: RXF 393 renal
[7] = tested on: HCC-2998 colon
[8] = tested on: OVCAR-5 ovarian
[9] = tested on: SF-539 CNS
[10] = tested on: KM12 colon
[11] = tested on: OVCAR-4 ovarian

| Compound | TGI [1] [µM] | TGI [2] [µM] | TGI [3] [µM] | TGI [4] [µM] | TGI [5] [µM] | TGI [6] [µM] | TGI [7] [µM] | TGI [8] [µM] | TGI [9] [µM] | TGI [10] [µM] | TGI [11] [µM] |
| --- | --- | --- | --- | --- | --- | --- | --- | --- | --- | --- | --- |
| CC(NC(=O)C(NC(=O)OC(C)(C)C)C(C)C)C(=O)NCC(=O)O (stereo not drawn) (Boc-Val-Ala-Gly-OH; configuration not given here) | > 100 | > 100 | > 100 | > 100 | > 100 | > 100 | > 100 | > 100 | > 100 | > 100 |  |
| CC(NC(=O)c1ccc(OP(=O)(OCC2=CC(=O)c3ccccc3C2=O)N(C)CCCCCl)cc1)c1ccc(OCC2CCCCC2)c(C(N)=O)c1 (stereo not drawn) | 35.1 | 26.2 | 31.2 | 2.02 | 61.7 |  | 4.05 | 70.6 | 28.5 | 30.3 |  |
| COc1cc(C(C#N)NNC(=O)c2ccccc2O)ccc1O (stereo not drawn) |  | > 100 | > 100 | > 100 | > 100 | 6.3 |  | > 100 | 8.73 | > 100 | > 100 |
| CC1=C(C#N)S(=O)(=O)c2c(oc(C)c2C)N1 | > 100 | > 100 | > 100 | > 100 | > 100 |  | > 100 | > 100 | > 100 | > 100 | > 100 |
| CCCCNC(=S)Nc1nc(C(=O)NNS(=O)(=O)c2ccccc2)cs1 |  | > 100 |  | 31 | 99.9 |  | 97.7 | > 100 | > 100 | > 100 |  |
| CC1=C2N3C[C@@H](n4c(=O)n(C)c(=O)n43)C23CCC1n1c(=O)n(C)c(=O)n13 | > 100 | > 100 | > 100 | > 100 | > 100 |  | > 100 | > 100 | > 100 | > 100 | > 100 |
| C/C(=N/O)c1cccc(Nc2nc3ccccc3c3[nH]c4ccccc4c23)c1 | 19.2 | 6.24 | 6.51 | 4.08 | 15.6 | 4.59 |  | 9.27 | 23.9 | 9.92 | 6.96 |
| COc1cccc2c1C1=CC(=O)CCC1C(C)(C)O2 (stereo not drawn) | > 100 | > 100 | > 100 | > 100 | > 100 | > 100 |  | > 100 | > 100 | > 100 | > 100 |
| COc1ccc(CNc2nc3ccccc3nc2-c2cccs2)cc1 |  | > 100 | > 100 | > 100 | > 100 | > 100 | > 100 | > 100 | > 100 | > 100 | > 100 |
| Fc1cccc2nc(-c3ccccc3)cc(OCc3ccccc3)c12 | > 100 | > 100 | > 100 | > 100 | > 100 | > 100 | > 100 | > 100 |  | > 100 | > 100 |
| CC1(C)C2CCC1C(=O)C(C=O)C2 (stereo not drawn) | > 100 | > 100 | > 100 | > 100 | > 100 | > 100 | > 100 | > 100 | > 100 | > 100 |  |
| N#CC(c1ccccc1)c1cccc2ccccc12 (stereo not drawn) | > 100 | 98.8 | > 100 | 34.3 | > 100 |  | 81.8 | > 100 | > 100 | 66 | > 100 |
| CSc1n[n+](C)cc(N)c1N | 97.7 |  | > 100 | > 100 | > 100 |  | > 100 | > 100 | > 100 | > 100 | > 100 |
| O=C(CCCC(=O)N1CC(CCl)c2ccc([N+](=O)[O-])cc21)N1CC(CCl)c2ccc([N+](=O)[O-])cc21 (stereo not drawn) | > 100 | > 100 | > 100 | > 100 | > 100 | > 100 | > 100 | > 100 | > 100 |  | > 100 |
| CC(=O)Nc1ccc(Nc2nc(=O)[nH]c(=O)[nH]2)cc1 | > 100 | > 100 | > 100 | > 100 | > 100 |  | > 100 | > 100 | > 100 | > 100 | > 100 |
| COc1cccc(-c2cc(=O)c3cc(C)cnc3[nH]2)c1 | > 100 | > 100 | 0.191 | 3.17 | > 100 |  | 2.67 | > 100 | > 100 |  | > 100 |
| O=C(CSc1nc2ccc(I)cc2c(=O)n1Cc1ccccc1)Nc1ccc(Br)cc1 | > 100 | 28 | > 100 | > 100 |  | > 100 |  | > 100 | 6.1 | > 100 | > 100 |
| c1ccc2c(c1)SC1Sc3ccccc3[S+]21 (stereo not drawn) | > 100 | 39.8 | > 85.3 | 22.7 | 55.4 | > 73.1 |  | > 100 | 54.9 | 31.1 | > 100 |
| C=C1CCCCCCCCCCC1S(=O)c1ccccc1 (stereo not drawn) | > 100 | 95.8 | > 100 | > 100 |  | 64.5 | > 100 | > 100 | 37.2 |  | > 100 |
| Cn1c(N/N=C/c2ccc(Cl)cc2)nc(-c2ccc(Cl)cc2)c(C#N)c1=O | > 100 | > 100 | > 100 | > 100 | 76.3 | 57.8 |  | 51.1 | 45 | 57.6 | 61.7 |
| c1ccc(N=NNNc2ccc(-c3nc4ccccc4[nH]3)cc2)cc1 | > 100 |  | 94.7 | > 100 | > 100 | 55.8 |  | > 100 | > 100 | > 100 | > 100 |
| CC(=O)O[C@H]1/C(=C/c2ccc(N(C)C)cc2)C[C@H]2[C@@H]3CC=C4C[C@@H](N5CCCC5)CC[C@]4(C)[C@H]3CC[C@]12C | > 100 | > 100 | > 100 | > 100 | > 100 | > 100 |  | > 100 | > 100 |  |  |
| CCN(CC)C(=O)CCCCCCCCC1CO1 (stereo not drawn) | > 100 | > 100 | > 100 | > 100 | > 100 | > 100 |  | > 100 | > 100 | > 100 | > 100 |
